{
  "source": "patent US20160271139A1",
  "about": "“METHOD FOR NON-TOXIC TREATMENT FOR DRUG WITHDRAWAL” (DEMERX, INC., priority 2013, published 2016)",
  "key": {"[1]": {"test": "Plasma noribogaine glucuronide pharmacokinetics in healthy volunteers (Example 7)", "format": "in vivo", "details": "human plasma; for AUC0-216 / AUC0-∞ / Cmax / Tmax / t1/2: mean"}, "Sprague-Dawley rats": {"test_system": "Sprague-Dawley rats", "test": "Fourteen day repeat dose toxicity in rats", "format": "in vivo, rat", "protocol": "This study was conducted to evaluate the toxicity profile of noribogaine-HCl following oral (gavage) administration to the rat for 14 days following Table 2 below:\nMale and female Sprague-Dawley rats, 10/sex/group, were administered 0, 25, 50 or 100 mg/kg noribogaine HCl daily by single oral gavage for 14 days. An additional 5 rats/sex/group in the 0 (control) and 100 mg/kg groups were retained for a 28 day recovery period during which no drug was administered. Six rats/sex/group (3 rats/sex controls) were similarly dosed and sampled on study days 1 and 14 for analysis of noribogaine-HCl concentrations in the blood."}, "[2]": {"test": "Human pharmacokinetic study, single oral dose, serum levels (Example 6)", "format": "in vivo", "details": "fasting healthy volunteers, single oral tablet 3, 10, 30 or 60 mg", "protocol": "In double blind studies, fasting healthy volunteers (6 per cohort) were treated once orally with a tablet of noribogaine HCl. In escalating cohorts, the volunteers received 3 mg, 10 mg, 30 mg or 60 mg noribogaine."}, "dogs": {"test_system": "dogs", "test": "Fourteen day repeat dose toxicity in dogs", "format": "in vivo, dog", "protocol": "The objective of this study was to determine the toxicity profile of noribogaine HCl given following oral (gavage) administration to dogs for 14 days according to the following Table 3 below:\nNoribogaine HCl was administered to groups of 4 male and 4 female dogs by single oral gavage daily for 14 days at doses of 0, 0.5, 1.0 and 5.0 mg/kg/day. An additional group of 4 male and 4 female dogs received either the vehicle control or 5.0 mg/kg/day for 14 days and were held for an additional 28 days after cessation of dosing to assess recovery from any potential drug-induced changes. The study was conducted under GLP guidelines and included comprehensive examinations of clinical signs, body weight, clinical pathology parameters, ophthalmologic examinations. ECG recordings and analyses of plasma for bioanalytical measurement of drug levels at appropriate intervals during the study. At the termination of the dosing phase and at the termination of the recovery phase, all dogs were subjected to a complete post-mortem examination including gross examination of major organs and histologic examination of an extensive list of tissues. Additional sections of brain were obtained from cerebrum, cerebellus, brain stem and spinal cord and examined histologically to evaluate potential effects on brain histopathology. In addition, these sections were examined with immunohistochemical stains for GFAP for evidence of gliosis and Calbindin for a more comprehensive examination of cerebellar Purkinje cells."}, "Sprague-Dawley rat": {"test_system": "Sprague-Dawley rat", "test": "Single dose toxicity in rats", "format": "in vivo", "details": "male rats", "protocol": "The objective of this study was to determine the toxicity and toxicokinetic profile of noribogaine HCl following a single oral (gavage) administration in the Sprague-Dawley rat. A single dose of 100, 300 and 800 mg/kg (achieved with doses of 400 mg/kg 3 h+/−30 min apart because of the limitations of maximum dose formulation concentration). Five male rats/group were used. […] Hypoactivity, vocalization, chewing movements, changes in respiration/posture, salivation, stimuli sensitivity, tremors, twitches and penile erection occurred prior to death. […] The NOAEL was determined to be 100 mg/kg."}, "[3]": {"details": "after single oral 30 mg noribogaine (n = 6)"}, "[4]": {"details": "after single oral 60 mg noribogaine (n = 6)"}},
  "data": [
    {"smiles": "CC[C@H]1C[C@@H]2C[C@H]3c4[nH]c5ccc(OC6OC(C(=O)O)C(O)C(O)C6O)cc5c4CCN(C2)[C@@H]13", "note": "(some centres unmarked) [Noribogaine glucuronide, noribogaine glucuronide]", "values": [
      {"measurement": "Mean half-life", "setting": "[1]; 30 mg and 60 mg dose groups", "result": "21 to 23", "unit": "h"},
      {"measurement": "Time of peak concentrations after noribogaine dosing", "setting": "[1]; 30 mg and 60 mg dose groups", "result": "3 to 4", "unit": "h"},
      {"measurement": "Time by which detected in all subjects", "setting": "[1]; 30 mg and 60 mg noribogaine dose groups", "result": "≤ 0.75", "unit": "h"},
      {"measurement": "AUC0-216", "setting": "[1]; [3]", "result": 25.7, "unit": "ng·h/mL"},
      {"measurement": "AUC0-∞", "setting": "[1]; [3]", "result": 25.8, "unit": "ng·h/mL"},
      {"measurement": "Cmax", "setting": "[1]; [3]", "result": 1.8, "unit": "ng/mL"},
      {"measurement": "Tmax", "setting": "[1]; [3]", "result": 3.0, "unit": "h"},
      {"measurement": "t1/2", "setting": "[1]; [3]", "result": 20.6, "unit": "h"},
      {"measurement": "AUC0-216", "setting": "[1]; [4]", "result": 65.0, "unit": "ng·h/mL"},
      {"measurement": "AUC0-∞", "setting": "[1]; [4]", "result": 67.1, "unit": "ng·h/mL"},
      {"measurement": "Cmax", "setting": "[1]; [4]", "result": 4.1, "unit": "ng/mL"},
      {"measurement": "Tmax", "setting": "[1]; [4]", "result": 3.8, "unit": "h"},
      {"measurement": "t1/2", "setting": "[1]; [4]", "result": 23.1, "unit": "h"},
      {"measurement": "Proportion of noribogaine glucuronide Cmax and AUC relative to noribogaine", "setting": "[1]; both dose groups (30 mg, 60 mg)", "result": "3-4%"}
    ]},
    {"smiles": "CC[C@@H]1C[C@H]2CC3c4[nH]c5ccc(O)cc5c4CCN(C2)C31.Cl", "note": "[noribogaine HCl]", "values": [
      {"measurement": "Effects on mortality, clinical signs, ophthalmoscopy, hematology, coagulation parameters, clinical chemistry, urinalysis, gross necropsy or histopathology", "setting": "Sprague-Dawley rats; rats, 25, 50 or 100 mg/kg daily oral gavage for 14 days", "result": "no test article-related effects"},
      {"measurement": "Brain sections stained for GFAP or Calbindin", "setting": "Sprague-Dawley rats; rats, 14 days oral gavage", "result": "No treatment-related differences in the brain"},
      {"measurement": "NOAEL", "setting": "Sprague-Dawley rats; rats, 14 days oral gavage, highest dose tested", "result": 100, "unit": "mg/kg"},
      {"measurement": "Body weight change", "setting": "Sprague-Dawley rats; rats, females, high dose 100 mg/kg, 14 days", "result": "−2.6", "unit": "%"},
      {"measurement": "Food consumption change", "setting": "Sprague-Dawley rats; rats, males and females, high dose 100 mg/kg, 14 days", "result": "−4.7", "unit": "%"},
      {"measurement": "Body weight change", "setting": "Sprague-Dawley rats; rats, males, high dose 100 mg/kg, 14 days", "result": "−5.5", "unit": "%"},
      {"measurement": "Liver weight", "setting": "Sprague-Dawley rats; rats, mid- and high dose groups (50, 100 mg/kg), 14 days, not correlated with histopathologic changes, considered incidental", "result": "Minor increases in liver weight"},
      {"measurement": "Adverse effects", "setting": "[2]", "result": "no clinically relevant adverse effects were observed"},
      {"measurement": "Linearity of pharmacokinetic parameters", "setting": "[2]", "result": "All parameters were linear"},
      {"measurement": "Lacrimal gland change in recovery group", "setting": "dogs; dogs, 5 mg/kg/day 14 days, then 28 days off drug", "result": "clear evidence of regeneration"},
      {"measurement": "Lacrimal gland changes (only target tissue)", "setting": "dogs; dogs, 5 mg/kg/day, 14 days", "result": "slight to moderate atrophy and degeneration of the acinar cells"},
      {"measurement": "Adverse effect in clinical observations, body weights, clinical pathological parameters, ophthalmologic examinations, ECG recordings, or gross lesions at necropsy", "setting": "dogs; dogs, 0.5, 1.0 and 5.0 mg/kg/day oral gavage 14 days, dosing or recovery phase", "result": "No evidence of adverse effect"},
      {"measurement": "Drug-induced effect in any other tissue including brain (histopathology, immunohistochemistry)", "setting": "dogs; dogs, 14 days oral gavage", "result": "No evidence of drug-induced effect"},
      {"measurement": "NOAEL", "setting": "dogs; dogs, 14 days oral gavage, based on lacrimal gland changes at 5 mg/kg/day", "result": 1, "unit": "mg/kg/day"},
      {"measurement": "NOAEL", "setting": "Sprague-Dawley rat; single oral gavage", "result": 100, "unit": "mg/kg"},
      {"measurement": "Treatment related signs", "setting": "Sprague-Dawley rat; single oral gavage 100 mg/kg", "result": "did not show any treatment related signs"},
      {"measurement": "Rats with hypoactivity, vocalization, salivation, stimuli sensitivity, loss of limb function and lying on the cage floor persisting until Day 2", "setting": "Sprague-Dawley rat; single oral gavage 300 mg/kg", "result": "3/5"},
      {"measurement": "Mortality", "setting": "Sprague-Dawley rat; single oral gavage 800 mg/kg (2 x 400 mg/kg 3 h apart), approximately 2-3 h after second dose", "result": "Mortality occurred in all male rats"}
    ]}
  ]
}
